#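 The compound was tested at five concentrations on cells cultured in 96-well plates, with a 48-hour exposure period. Here, GI50 denotes the concentration required for 50% inhibition of growth. TGI: total growth inhibition.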
# Assays:
# Test in all cases: inhibition of tumour cell growth, NCI panel, 48 h
# DMS 273 small cell lung = system: DMS 273 small cell lung
# KM20L2 colon = system: KM20L2 colon
# LXFL 529 NSCLC = system: LXFL 529 NSCLC
# M19-MEL melanoma = system: M19-MEL melanoma
# RXF-631 renal = system: RXF-631 renal
# XF 498 CNS = system: XF 498 CNS
# DU-145 prostate = system: DU-145 prostate
# MDA-N = system: MDA-N
Compound,TGI (DMS 273 small cell lung) [µM],TGI (KM20L2 colon) [µM],TGI (LXFL 529 NSCLC) [µM],TGI (M19-MEL melanoma) [µM],TGI (DU-145 prostate) [µM],GI50 (DU-145 prostate) [µM],further results
CCc1cc(CCC(=O)Nc2c(C)cccc2C)[nH]n1,> 100,> 100,> 100,> 100,,,TGI (RXF-631 renal): > 100 µM; TGI (XF 498 CNS): > 100 µM
CCCCCCCCCCCCCCCCCC(=O)OCC(COC(=O)CCCN)OC(=O)CCCN (configuration not stated),,,,,33.7,,TGI (MDA-N): 39.4 µM
O=C(O)C(Cl)(c1ccccc1)c1ccccc1,,,,,> 100,,TGI (MDA-N): > 100 µM
Cc1ccc(S(=O)(=O)NNC(=O)c2cc(C)c(C)cc2N)cc1,,,,,> 100,,TGI (MDA-N): > 100 µM
CC/C(CC(=O)CCC(=O)Nc1ccccc1[N+](=O)[O-])=N/NC(=O)C[n+]1ccccc1,> 100,> 100,> 100,> 100,,,TGI (RXF-631 renal): > 100 µM
Cc1cc(Cl)ccc1NC(=O)C(=O)C(C(=O)c1ccc2ccccc2c1)C1OC(=O)c2ccccc21 (configuration not stated),37.1,61.7,19,29.7,,,TGI (RXF-631 renal): 31.2 µM
COc1cccc(NC(=O)c2sc3nc4c(cc3c2N)C(=O)CCC4)c1,,,,,> 100,0.231,
Cc1cc(C)c(NC(=S)NC(=O)c2ccccc2)cc1C,,,,,> 100,,TGI (MDA-N): > 100 µM
C=C(Nc1ccc([N+](=O)[O-])cc1[N+](=O)[O-])c1c/c(=N\NC(N)=S)c2ccccc2o1,,,,,> 100,,TGI (MDA-N): > 100 µM
COc1nc(N)nc2c1ncn2C1OC(CO)C(O)C1O (configuration not stated),,,,,> 5000,> 5000,
Cc1ccc(C)c(C2NC(=O)c3ccccc3N2)c1 (configuration not stated),,,,,> 50.9,,TGI (MDA-N): 0.319 µM
CCn1c(-c2cc3ccccc3cc2O)nn(C(=O)c2c(Cl)cccc2Cl)c1=S,,,,,> 50,41.1,
CCC(CNc1cc(OC)cc2cccnc12)NC1CCCCC1 (configuration not stated),,,,,> 100,35.5,
COc1ccccc1CNCCCN1C(=O)c2ccc3c4c(ccc(c24)C1=O)C(=O)N(CCCCNCCCN)C3=O,,,,,2.99,1.59,
CCOC(=O)C(C)(C)Oc1ccc(/C=C/C(=O)c2ccc(Cl)cc2)cc1,34.6,33.7,29.2,38.2,,,TGI (RXF-631 renal): 38.5 µM; TGI (XF 498 CNS): 39.1 µM
COC(C(=O)NCCCCNC(=O)C(OC)c1ccccc1)c1ccccc1 (configuration not stated),> 100,> 100,> 100,> 100,,,TGI (RXF-631 renal): > 100 µM; TGI (XF 498 CNS): > 100 µM
CN(C)C=C1C(Cl)=C(C=O)CC(C=O)=C1Cl,29,41,4.45,29.1,,,
O=C(Nc1cccc(O)c1)C(=O)C(C(=O)c1ccc(Cl)c(Cl)c1)C1OC(=O)c2ccccc21 (configuration not stated),39.5,37.3,24.6,27.1,,,TGI (XF 498 CNS): 25.6 µM

Compound,TGI (DMS 273 small cell lung) [µM],TGI (KM20L2 colon) [µM],TGI (LXFL 529 NSCLC) [µM],TGI (M19-MEL melanoma) [µM],TGI (DU-145 prostate) [µM],GI50 (DU-145 prostate) [µM],further results
CC[N+]1(C)CCC(O)(c2ccc(OC)cc2)C(C(=O)c2ccc(OC)cc2)C1 (configuration not stated),43.1,46.2,9.76,42.4,32.7,,TGI (MDA-N): 31.9 µM; TGI (RXF-631 renal): 34.5 µM; TGI (XF 498 CNS): 23.3 µM
COc1cc(CNc2ccccc2C(=O)N2CCN(C(=O)c3cc(-c4cc(OC)c(OC)c(OC)c4)n4nc(-c5ccccc5)cc4n3)CC2)cc(OC)c1OC,,,,,> 100,3.96,
O=C1OC(O)C(Oc2c(Cl)cccc2Cl)=C1Cl (configuration not stated),30.1,32.9,33.6,,,,
COc1ccc(OC)c2c1[nH]c(=O)c1c3ncccc3cn21,,,,,14.7,3.45,
COC(=O)c1cc(O)c2c(c1C(=O)OC)C[C@H]1[C@@H]3CC=C4C[C@@H](O)CC[C@]4(C)[C@H]3CC[C@]21C,,,,,16.1,3.89,
CC(C)(C)C1CCC2c3c([nH]c4ccccc34)C3C(=O)N(c4ccccc4)C(=O)C3C2C1 (configuration not stated),15,,32.3,23.7,,,TGI (XF 498 CNS): 3 µM
CSc1n[n+]2c(s1)SCCC2,> 100,,> 100,> 100,,,TGI (RXF-631 renal): > 100 µM; TGI (XF 498 CNS): > 100 µM
O=[N+]([O-])C1Cc2ccccc2OC1c1ccccc1 (configuration not stated),> 100,> 100,> 100,> 100,,,TGI (RXF-631 renal): > 100 µM
CN/N=C(\C)C(CN(C)C)C(c1ccccc1)c1c(O)c2ccccc2oc1=O (configuration not stated),,,,,> 100,,TGI (MDA-N): > 100 µM
NC(=O)c1cccc(Nc2nccc(Nc3cccc4[nH]ncc34)n2)c1,,,,,> 25,9.7,
CC(=O)[CH-]C(=O)c1ccccc1.CC(=O)[CH-]C(=O)c1ccccc1.CCOCC[O-].CCOCC[O-].[Ti+4],,> 100,29.1,43.4,,,GI50 (KM20L2 colon): 19.6 µM; GI50 (LXFL 529 NSCLC): 12.2 µM; GI50 (M19-MEL melanoma): 18.9 µM
COc1ccc(/C=N\Nc2ccc([N+](=O)[O-])cn2)cc1OC,,,,,> 100,> 100,
Cn1c2ccc(Br)cc2c2c3c(c4c5ccccc5[nH]c4c21)C(=O)N(O)C3=O,,,,,0.57,0.0871,
CC(=O)On1c(-c2ccccc2-c2nc3ccccc3n2OC(C)=O)nc2ccccc21,,,,,> 100,,TGI (MDA-N): > 100 µM
O=c1c2cccc3cccc(c4n1CCN=4)c32,> 100,> 100,> 100,> 100,,,TGI (XF 498 CNS): > 100 µM
C=C[C@@]1(O)CCCC2=C(C(=O)OCC)CC[C@]21C,> 100,,> 100,> 100,,,
O=C(OCc1ncc(-c2ccc(C(F)(F)F)cc2)c(NC2CCCCCC2)n1)c1c(F)c(F)c(F)c(F)c1F,,,,,25.3,12.5,
FC(F)(F)C1(Br)C(c2ccccc2)=C1c1ccccc1,36.3,36.3,28.1,30,,,TGI (RXF-631 renal): > 100 µM; TGI (XF 498 CNS): 30.7 µM

# From PubChem BioAssay (NCI)
